Our source for the EC50 values is patent publication US20240368174A1, “Antiviral Heterocyclic Compounds” (Enanta Pharmaceuticals, Inc., priority 2023, published 2024).

The test system of test [1] is HMPV clinical isolate A2 strain TN 94-49. Briefly: HMPV antiviral assay, Method 2 (LLC-MK2 cells with CP-100-356, ATP-Lite). Type of test: cell-based. As to conditions: human metapneumovirus. The method, boiled down:
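LLC-MK2 rhesus kidney cells (5,000/well) infected in suspension with HMPV A2 TN 94-49 at MOI 0.16, in serum-free medium with final 2 μg/mL TPCK-trypsin and 2 μM CP-100-356. Compounds tested in duplicate from 200 nM, 2.5-fold, 10 points; 7 days at 37 °C. Cell health by ATP-Lite luminescence; EC50 by four-parameter fit.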

The test system of test [2] is genotype A, “Long” strain RSV. Briefly: RSV-A assay (CPE, ATPlite readout in Hep-2 cells). Type of test: cell-based, Human respiratory syncytial virus. As to conditions: human respiratory syncytial virus, activity class. From the text:
Hep-2 cells, (originally derived from tumors grown in irradiated-cortisonised weanling rats that had been injected with epidermoid carcinoma tissue from the larynx of a person, but later found to be indistinguishable from HeLa cells by PCR DNA analysis), were used for the culturing of genotype A, “Long” strain RSV. Flasks were inoculated with RSV and viral stocks were collected once cytopathic effect (CPE) was greater than 90%. Viral stocks in 25% sucrose media were snap frozen using liquid nitrogen to increase viral stability. Viral stock titers were quantified by tissue culture infectious dose 50% (TCID50) using 8,000 cells per well and 3-fold viral dilutions across a 96-well plate, cultured for 4 days. Viral stock titers were also quantified by a plaque forming unit assay, as described elsewhere.
Following extensive parameter testing, the final assay is run as follows: Hep-2 cells are seeded into the inner 60 wells of a 96-well plate at 8,000 cells per well in a volume of 50 μL using Growth Media (DMEM without phenol red, 1% L-Glut, 1% Penn/Strep, 1% nonessential amino acids, 10% heat-inactivated FBS). 2-fold serial dilutions of control and test compounds are added to the wells in duplicate in a total volume of 25 μL. Viral stock is then added to the wells at a multiplicity of infection (MOI) of 0.1 in a volume of 25 μL, bringing the total volume of each well to 100 μL. The MOI is calculated using the PFU/mL, or TCID50 if unavailable. Each 96-well plate has a control column of 6 wells with cells and virus but no compound (negative control, max CPE), a column with cells but no compound or virus (positive control, minimum CPE), and a column with no cells or virus or compound (background plate/reagent control). The control wells with cells but no virus are given an additional 25 μL of growth media containing an equal quantity of sucrose as those wells receiving the viral stock in order to keep consistent in media and volume conditions. The outer wells of the plate are filled with 125 μL of moat media (DMEM, 1% Penn/Strep) to act as a thermal and evaporative moat around the test wells. Following a 5-day incubation period, the plates are read using ATPlite (50 uL added per well), which quantifies the amount of ATP (a measure of cell health) present in each well. Assay plates are read using the Envision luminometer. […] EC50 ranges are as follows: A<0.2 μM; B>0.2 μM.

[3] abbreviates: hMPV A2 TN/94-49, LLC-MK2 cells with CP-100-356, Method 2.
[4] abbreviates: 168 h, hMPV A2 TN/94-49, LLC-MK2 cells with 4 μM CP-100-356, 7 days, ATP-Lite.

Molecules are shown by their SMILES.

The EC50 is the concentration at which the effect is half-maximal. A higher EC50 goes with a less potent agent.

For the molecule `COc1cc(C(=O)NC[C@@](O)(c2cccc(F)c2)c2cc3c(c(-c4cc(F)cnc4Cl)n2)OC[C@]3(C)C(N)=O)cc2cn(C3(F)CC3)nc12` [Example 403], the EC50 was over 200 nM in test [1] (setting [3]) and under 200 nM in test [2].

Consider `COc1cc(C(=O)NC[C@@](O)(CC#N)c2cc3c(c(-c4cc(Cl)c(F)cc4F)n2)OC[C@]3(C)C(N)=O)cc2cn(C3CC3)nc12` [Example 240], for which the EC50 in test [1] (setting [3]) was over 200 nM; in test [2] it was under 200 nM.

For the molecule `COc1cc(C(=O)NC[C@@](O)(C#CC(C)(C)S(C)(=O)=O)c2cc3c(c(-c4cc(Cl)c(F)cc4F)n2)OC[C@]3(C)C(N)=O)cc2cn(C3CC3)nc12` [Example 341], the results for the EC50 in test [1] (setting [3]) and in test [2] were over 200 nM and under 200 nM, respectively.

As for `COc1cc(C(=O)N(C)C[C@](O)(c2cc3c(c(-c4ccc(F)c(Cl)c4)n2)OC[C@]3(C(N)=O)C(F)F)C2CC2)cc2cn(C3CC3)nc12` [Example 350], the figures for the EC50 in test [1] (setting [3]) and in test [2] were over 200 nM and under 200 nM, respectively.

Regarding `COc1cc(C(=O)NC[C@](O)(c2cc3c(c(-n4ccc5c(F)cccc54)n2)OC[C@]3(C)C(N)=O)C2(F)CC2)cn2cc(C3CC3)nc12` [Example 690], the EC50 in test [1] (setting [4]) and in test [2] was under 200 nM throughout.

On to `COc1cc(C(=O)NC[C@](O)(c2cc3c(c(-c4cc(C(F)(F)F)ncc4F)n2)OC[C@]3(C)C(N)=O)C2(F)CC2)cc2oc(C3CC3)nc12` [Example 670], for which the EC50 in test [1] (setting [4]) and in test [2] was under 200 nM throughout.

On to `COc1nccc(-c2nc([C@@](O)(CNC(=O)c3cc(OC)c4nc(C5CC5)oc4c3)C3CC3)cc3c2OC[C@]3(C)C(N)=O)c1Cl` [Example 745], for which the EC50 in test [1] (setting [4]) and in test [2] was under 200 nM in each case.

As to `COc1cc(C(=O)NC[C@](O)(c2cc3c(c(-c4ccc(F)c(Cl)c4Cl)n2)OC[C@]3(C)C(N)=O)C2CC2)cc2cn(C3(F)CC3)nc12` [Example 322], the EC50 in test [1] (setting [3]) and in test [2] was under 200 nM throughout.

In the case of `COc1cc(C(=O)NC[C@](O)(c2cc3c(c(-n4ccc5c(OC(F)F)cccc54)n2)OC[C@]3(C)C(N)=O)C2CC2)cc2cn(C3CC3)nc12` [Example 864], the EC50 in test [1] (setting [4]) and in test [2] was under 200 nM in each case.

Turning to `C[C@]1(C(N)=O)COc2c1cc([C@@](O)(CNC(=O)c1ccc3nc(C4CC4)oc3c1)C1CC1)nc2-c1ccc(F)c(Cl)c1Cl` [Example 319], the EC50 in test [1] (setting [3]) and in test [2] was under 200 nM in each case.

Take `COc1cc(C(=O)NC[C@](O)(c2cccc(F)c2)c2cc3c(c(-c4cc(F)cnc4Cl)n2)OC[C@]3(C)C(N)=O)cc2cn(C3(F)CC3)nc12` [Example 404]: the EC50 in test [1] (setting [3]) and in test [2] was over 200 nM throughout.

As for `COc1cc(C(=O)NC[C@](O)(c2cc3c(c(-c4cccc(F)c4Cl)n2)OC[C@]3(C)C(N)=O)C(F)(F)F)cc2cn(C3(F)CC3)nc12` [Example 611], the EC50 in test [1] (setting [3]) and in test [2] was under 200 nM throughout.

For `COc1nccc(-c2nc([C@@](O)(CNC(=O)c3cc(OC)c4nn(C5CC5)cc4c3)C(F)(F)F)cc3c2OC[C@]3(C)C(N)=O)c1Cl` [Example 796], the EC50 in test [1] (setting [4]) and in test [2] was under 200 nM each time.

Regarding `COc1cc(C(=O)NC[C@](O)(c2cc3c(c(-c4cc(C(F)(F)F)ncc4F)n2)OC[C@]3(C)C(N)=O)C2CC2)cn2cc(C3CC3)nc12` [Example 662], the EC50 in test [1] (setting [4]) and in test [2] was under 200 nM each time.

Turning to `COc1cc(C(=O)NC[C@](O)(c2cc3c(c(-n4ncc5c(F)cccc54)n2)OC[C@]3(C)C(N)=O)C2CC2)cc2cn(C3CC3)nc12` [Example 820], the EC50 in test [1] (setting [4]) and in test [2] was under 200 nM throughout.

Consider `COc1cc(C(=O)NC[C@](O)(c2cc3c(c(-n4ccc5c(F)cccc54)n2)OC[C@]3(C)C(N)=O)C2(F)CC2)cc2cn(C(F)F)nc12` [Example 688], for which the EC50 in test [1] (setting [4]) and in test [2] was under 200 nM throughout.

For the molecule `COc1cc(C(=O)NC[C@](O)(c2cc3c(c(-c4cc(C(F)(F)F)ncc4F)n2)OC[C@]3(C)C(N)=O)C2CC2)cc2cn(C(F)F)nc12` [Example 352], the EC50 in test [1] (setting [3]) and in test [2] was under 200 nM throughout.

Take `CNCC1([C@](O)(CNC(=O)c2cc(OC)c3nn(C4CC4)cc3c2)c2cc3c(c(-c4cc(Cl)c(F)cc4F)n2)OC[C@]3(C)C(N)=O)CC1` [Example 211]: the EC50 in test [1] (setting [3]) and in test [2] was over 200 nM in each case.

As for `COc1cc(C(=O)NC[C@](O)(c2cc3c(c(-c4ccnc(C(F)(F)F)c4Cl)n2)OC[C@]3(C)C(N)=O)C(F)(F)F)cc2cn(C3CC3)nc12` [Example 783], the EC50 in test [1] (setting [4]) and in test [2] was under 200 nM in each case.

`COc1cc(C(=O)NC[C@](O)(c2cc3c(c(-c4ccnc(C(F)(F)F)c4Cl)n2)OC[C@]3(C)C(N)=O)C2CC2)cc2oc(C(F)F)nc12` [Example 581]: the EC50 in test [1] (setting [3]) and in test [2] was under 200 nM in each case.

Turning to `COc1cc(C(=O)NC[C@](O)(c2cc3c(c(-c4cc(Cl)ncc4C)n2)OC[C@]3(C)C(N)=O)C2CC2)cc2cn(C3CC3)nc12` [Example 417], the EC50 in test [1] (setting [3]) and in test [2] was under 200 nM throughout.

For `COc1cc(C(=O)NC[C@](O)(c2cc3c(c(-c4ccnc(C(F)F)c4Cl)n2)OC[C@]3(C)C(N)=O)C2CC2)cc2oc(C(F)F)nc12` [Example 542], the EC50 in test [1] (setting [3]) and in test [2] was under 200 nM in each case.

As to `COc1cc(C(=O)NC[C@@](O)(c2ccccc2)c2cc3c(c(-n4ncc5c(F)cccc54)n2)OC[C@]3(C)C(N)=O)cc2cn(C3CC3)nc12` [Example 628], the EC50 in test [1] (setting [4]) and in test [2] was under 200 nM throughout.

Consider `COc1cc(C(=O)NC[C@@](O)(CC2CC2)c2cc3c(c(-c4cc(Cl)c(F)cc4F)n2)OC[C@]3(C)C(N)=O)cc2cn(C3CC3)nc12` [Example 517], for which the concentration giving a half-maximal response (EC50) in test [1] (setting [3]) and in test [2] was over 200 nM throughout.

As to `COc1cc(C(=O)NC[C@](O)(c2cc3c(c(-c4ccnc(C(F)F)c4Cl)n2)OC[C@]3(C)C(N)=O)C(F)(F)F)cc2cn(C3CC3)nc12` [Example 795], the EC50 in test [1] (setting [4]) and in test [2] was under 200 nM each time.

With `C[C@]1(C(N)=O)COc2c1cc([C@@](O)(CNC(=O)c1cc(OC3CC3)n3nc(C4CC4)cc3c1)C1CC1)nc2-c1ccc(F)c(Cl)c1Cl` [Example 325], the EC50 in test [1] (setting [3]) and in test [2] was under 200 nM in each case.

Turning to `COc1cc(C(=O)NC[C@@](O)(c2cccc(F)c2)c2cc3c(c(-c4cc(Cl)ncc4F)n2)OC[C@]3(C)C(N)=O)cc2cn(C3CC3)nc12` [Example 410], the EC50 in test [1] (setting [3]) and in test [2] was under 200 nM each time.

On to `COc1nccc(-c2nc([C@@](O)(CNC(=O)c3cc(OC)c4nn(C(F)F)cc4c3)C3CC3)cc3c2OC[C@]3(C)C(N)=O)c1Cl` [Example 788], for which the EC50 in test [1] (setting [4]) and in test [2] was under 200 nM each time.

Regarding `C[C@]1(C(N)=O)COc2c1cc([C@@](O)(CNC(=O)c1cc(OC3CC3)c3ncc(Cl)cc3c1)C1CC1)nc2-c1ccc2c(c1Cl)OC(F)(F)O2` [Example 106], the EC50 in test [1] (setting [3]) and in test [2] was under 200 nM in each case.

`COc1cc(C(=O)NC[C@](O)(c2cc3c(c(-n4ccc5c(F)cccc54)n2)OC[C@]3(C)C(N)=O)C2CC2)cn2cc(C3CC3)nc12` [Example 868]: the EC50 in test [1] (setting [4]) and in test [2] was under 200 nM each time.

For the molecule `COc1cc(C(=O)NC[C@](O)(c2cc3c(c(-c4cc(F)c(F)cc4F)n2)OC[C@]3(C)C(N)=O)C2CC2)ccc1OC[C@@H](C)O` [Example 125], the EC50 in test [1] (setting [3]) was over 200 nM; in test [2], under 200 nM.

Take `COc1cc(C(=O)NC[C@](O)(c2cc3c(c(-c4cc(C(F)(F)F)c(F)cc4F)n2)OC[C@]3(C)C(N)=O)C2CC2)cc2cn(C3(F)CC3)nc12` [Example 309]: the EC50 in test [1] (setting [3]) and in test [2] was under 200 nM in each case.

On to `COc1cc(C(=O)NC[C@@](O)(c2cccc(F)c2)c2cc3c(c(-c4cc(F)ncc4Cl)n2)OC[C@]3(C)C(N)=O)cc2cn(C3CC3)nc12` [Example 376], for which the EC50 in test [1] (setting [3]) and in test [2] was under 200 nM each time.

With `C[C@]1(C(N)=O)COc2c1cc([C@@](O)(CNC(=O)c1cc(OCCO)c3nn(C4CC4)cc3c1)C1CC1)nc2-c1ccc2c(c1Cl)OC(F)(F)O2` [Example 681], the EC50 in test [1] (setting [4]) and in test [2] was under 200 nM in each case.
